Measured values: patent US12528817B2, “Method of inhibiting kinase by mesylate salts of triazolopyrazine derivatives” (ABION Inc., priority 2022, dated 2026)
Where “and” joins values, the source holds several entries; their conditions need not be identical. Identical values can stand only once. Entries after “also recorded” stand apart in the source; their conditions may differ.

How the values were obtained:
[1] = Long-term physical stability study, solid form by HT-XRPD; assay type: physicochemical
Description: (§1) HT-XRPD patterns were obtained using the Crystallics T2 high-throughput XRPD set-up. The plates were mounted on a Bruker General Area Detector Diffraction System (GADDS) equipped with a VANTEC-500 gas area detector corrected for intensity and geometric variations. The calibration of the measurement accuracy (peaks position) was performed using NIST SRM1976 standard (Corundum).
(§2) Data collection was carried out at room temperature using monochromatic Cu Kα radiation in the 2θ region between 1.5° and 41.5°, which is the most distinctive part of the XRPD pattern. The diffraction pattern of each well was collected in two 20 ranges (1.5°≤2θ≤21.5° for the first frame, and 19.5°≤2θ≤41.5° for the second) with an exposure time of 90 s for each frame. No background subtraction or curve smoothing was applied to the XRPD patterns. The carrier material used during HT-XRPD analysis was transparent to X-rays and contributed only slightly to the background.

[2] = Physical stability under accelerated aging conditions (AAC), HT-XRPD; details: for Form after AAC: 40° C./75% RH, 2 days (48 hours), HT-XRPD; for Physical stability after exposure to AAC: 40° C./75% RH for 2 days
Description: Upon completion of the aging time, the solids were separated from the liquid phases, dried under vacuum at 50° C. and analyzed by HT-XRPD. […] Subsequently, all the solids were exposed to accelerated aging conditions (AAC) at 40° C./75% RH for 48 hours and re-measured by HT-XRPD to test their physical stability.
as §1, §2

[3] = Long-term chemical stability study, API chemical purity by HPLC/LCMS; assay type: physicochemical
Description: Assay and purity assessment of the novel crystalline salts • Method name: S19061_01.MV • Sample: • Concentration: 0.3 mg/ml • Diluent: Acetonitrile/water (50/50)

[4] = DVS analysis (hygroscopicity, moisture sorption); assay type: physicochemical; details: for Change in mass at 80% RH / Change of mass in the range 40→95% RH / Water vapor uptake at 95% RH / Change in mass in the range 0→40% RH: 25° C.; for Solid form after DVS analysis: XRPD at end of DVS; for Hygroscopicity classification (European Pharmacopeia): based on change in mass at 80% RH; for Change of mass in the range 40→95% RH / Water vapor uptake at 95% RH: first sorption half-cycle; for Change in mass in the range 0→40% RH: last sorption half-cycle; for Reversibility of water uptake: sorption-desorption-sorption 40-95-0-40% RH
Description: Differences in hygroscopicity (moisture uptake) of the various forms of a solid material provided a measure of their relative stability at increasing relative humidity. Moisture sorption isotherms of small samples were obtained using a DVS-1 system from Surface Measurement Systems (London, UK); this instrument is suitable for use with as little as a few milligrams of sample, with an accuracy of 0.1 μg. The relative humidity was varied during sorption-desorption-sorption (40-95-0-40% RH) at a constant temperature of 25° C., typically with a hold time of 60 minutes per step (10% relative humidity step). At the end of the DVS experiment the sample was measured by XRPD.
The hygroscopicity was classified according to the European Pharmacopoeia Hygroscopicity classification.

[5] = Long-term stability study, water content by TGA/TGMS; assay type: physicochemical
Description: Mass loss due to solvent or water loss from the crystals was determined by TGA. […] The TGA/DSC 3+ was calibrated for temperature with samples of indium and aluminum. Samples (circa 2 mg) were weighed into 100 μL aluminum crucibles and sealed. The seals were pin-holed, and the crucibles heated in the TGA from 25 to 300° C. at a heating rate of 10° C./min. Dry N2 gas was used for purging.
The gases coming from the TGA samples were analyzed by a mass spectrometer Omnistar GSD 301 T2 (Pfeiffer Vacuum GmbH, Germany). The latter is a quadrupole mass spectrometer, which analyzes masses in the […] of 0-200 amu.

[6] = Thermal stability study in solution (LCMS); assay type: physicochemical; details: for Area %: approx. 0.3 mg/mL
Description: A thermal stability study was performed on ABN-401 to investigate the chemical stability of the starting material in solution when exposed to elevated temperatures. Solutions of ABN-401 were prepared in acetone, 1,2-dimethoxyethane, and acetonitrile with a concentration of approximately 0.3 mg/mL. Solutions were left at RT for 1 hour and successively, two aliquots of each solution were taken and heated at 50° C. and 80° C. for one hour. All these solutions were analyzed by LCMS. Additionally, the samples kept at RT were remeasured by LCMS after 24 hours to check the chemical degradation over time.
Starting material characterization and purity assessment of the novel crystalline forms of the free base: • Method name: S19061_03.M • Sample: • Concentration: 0.3 mg/ml • Diluent: Acetonitrile

Compound	Solid form (HT-XRPD) after storage ([1]; 25° C./60% RH, 1 month)	Solid form (HT-XRPD) after storage ([1]; 25° C./60% RH, 3 months)	Solid form (HT-XRPD) after storage ([1]; 25° C./60% RH, 15 months)	Solid form (HT-XRPD) after storage ([1]; 25° C./60% RH, 24 months)	Solid form (HT-XRPD) after storage ([1]; 40° C./75% RH, 1 month)	Solid form (HT-XRPD) after storage ([1]; 40° C./75% RH, 3 months)	Solid form (HT-XRPD) after storage ([1]; 40° C./75% RH, 15 months)	Solid form (HT-XRPD) after storage ([1]; 40° C./75% RH, 24 months)	Form after AAC [2]	API chemical purity after storage ([3]; 25° C./60% RH, 1 month)	API chemical purity after storage ([3]; 25° C./60% RH, 15 months)	API chemical purity after storage ([3]; 25° C./60% RH, 24 months)	API chemical purity after storage ([3]; 40° C./75% RH, 1 month)	API chemical purity after storage ([3]; 40° C./75% RH, 24 months)	Mass loss attributed to water (TGA) after storage ([5]; 25° C./60% RH, 1 month)	Mass loss attributed to water (TGA) after storage ([5]; 40° C./75% RH, 1 month)	Mass loss attributed to water (TGA) after storage ([5]; 40° C./75% RH, 3 months)	Mass loss attributed to water (TGA) after storage ([5]; 40° C./75% RH, 15 months)	Mass loss attributed to water (TGA) after storage ([5]; 40° C./75% RH, 24 months)	Physical stability after exposure to AAC [2]	other results
CC1(C)[C@@H]2CC[C@@]1(CS(=O)(=O)O)C(=O)C2.CN1CCN(Cc2ccc(-c3cnc(N4CCOC(Cn5nnc6ncc(-c7cnn(C)c7)nc65)C4)nc3)cc2)CC1 (stereo in doubt) [Camp2]	Camp2	Camp2	Camp2	no solid form conversion; also recorded: Camp2	Camp2	solid form conversion of Camp2 to Camp4	Camp4	a mixture of a camsylate salt and Form E of the free base; also recorded: Camp3+E	Camp2	99.8 % (area %)	99.5 % (area %) and 97.3 % (area %) and 100 % (area %)	100 % (area %)	99.8 % (area %)	88.6 % (area %)	1.6%	1.8%	7.1%	6.9%	6.7%	–	API chemical purity after storage ([3]; 40° C./75% RH, 15 months): 93.7 % (area %) and 88.6 % (area %); Change in mass at 80% RH [4]: 1.4%; Solid form after DVS analysis [4]: Camp4; Hygroscopicity classification (European Pharmacopeia) [4]: slightly hygroscopic; Change of mass in the range 40→95% RH [4]: 14.1%; Water vapor uptake at 95% RH [4]: 15.6%; Change in mass in the range 0→40% RH [4]: 6.6%; Reversibility of water uptake [4]: irreversible; Mass loss attributed to water (TGA) after storage ([5]; 25° C./60% RH, 24 months): 1.9%
CN1CCN(Cc2ccc(-c3cnc(N4CCOC(Cn5nnc6ncc(-c7cnn(C)c7)nc65)C4)nc3)cc2)CC1 (centres unmarked) [ABN-401]	–	–	–	–	–	–	–	–	–	–	–	87.2 % (area %)	–	90.7 % (area %)	3.7%	4.0%	4.4%	3.7%	5.2%	–	Area % ([6]; 1,2-dimethoxyethane, 1 h/50° C.): 98.6%; Area % ([6]; 1,2-dimethoxyethane, 1 h/80° C.): 97.7%; Area % ([6]; 1,2-dimethoxyethane, 1 h/RT): 99.0%; Area % ([6]; 1,2-dimethoxyethane, 24 h/RT): 98.8%; Area % ([6]; ACN, 1 h/50° C.): 99.0%; Area % ([6]; ACN, 1 h/80° C.): 98.7%; Area % ([6]; ACN, 1 h/RT): 99.0%; Area % ([6]; ACN, 24 h/RT): 98.1%; Area % ([6]; Acetone, 1 h/50° C.): 99.0%; Area % ([6]; Acetone, 1 h/80° C.): 99.0%; Area % ([6]; Acetone, 1 h/RT): 98.8%; Area % ([6]; Acetone, 24 h/RT): 98.5%; Chemical degradation in solution ([6]; samples kept at 50° C. and 80° C. for one hour, acetone, 1,2-dimethoxyethane, acetonitrile): No significant chemical degradation; Mass loss attributed to water (TGA) after storage ([5]; 25° C./60% RH, 3 months): 4.1%; Mass loss attributed to water (TGA) after storage ([5]; 25° C./60% RH, 15 months): 3.3%; Mass loss attributed to water (TGA) after storage ([5]; 25° C./60% RH, 24 months): 5.3%
CC1(C)[C@@H]2CC[C@@]1(CS(=O)(=O)O)C(=O)C2.CN1CCN(Cc2ccc(-c3cnc(N4CCOC(Cn5nnc6ncc(-c7cnn(C)c7)nc65)C4)nc3)cc2)CC1 (centres unmarked) [Camp1]	–	–	–	–	–	–	–	–	Camp1	–	–	–	–	–	–	–	–	–	–	physically stable	–
CN1CCN(Cc2ccc(-c3cnc(N4CCOC(Cn5nnc6ncc(-c7cnn(C)c7)nc65)C4)nc3)cc2)CC1.CS(=O)(=O)O (centres unmarked) [Mes1]	–	–	–	–	–	–	–	–	Mes1	–	–	–	–	–	–	–	–	–	–	physically stable	–
CN1CCN(Cc2ccc(-c3cnc(N4CCOC(Cn5nnc6ncc(-c7cnn(C)c7)nc65)C4)nc3)cc2)CC1.CS(=O)(=O)O.CS(=O)(=O)O (centres unmarked) [Mes2]	Mes2	no significant differences in the powder patterns and Mes2	additional diffraction peaks were detected at 15.1 and 16.5° 2θ; also recorded: Mes2+peaks	Mes6	Mes2	showed these additional peaks; also recorded: Mes2+peaks	Mes4 and Mes4+peaks	Mes6	Mes2	100 % (area %) and 99.7 % (area %)	100 % (area %)	99.6 % (area %)	99.7 % (area %) and 97.2 % (area %)	100 % (area %)	8.0%	10.8%	11.2%	9.6%	~12.0%	physically stable	API chemical purity after storage ([3]; 25° C./60% RH, 3 months): 99.6 % (area %); API chemical purity after storage ([3]; 40° C./75% RH, 3 months): 99.5 % (area %); API chemical purity after storage ([3]; 40° C./75% RH, 15 months): 100 % (area %); Change in mass at 80% RH [4]: approximately 12.2%; Solid form after DVS analysis [4]: No change in the solid form; Hygroscopicity classification (European Pharmacopeia) [4]: moderately hygroscopic; Change of mass in the range 40→95% RH [4]: 24.8%; Water vapor uptake at 95% RH [4]: 29.6%; Change in mass in the range 0→40% RH [4]: 4.6%; Reversibility of water uptake [4]: reversible; Mass loss attributed to water (TGA) after storage ([5]; 25° C./60% RH, 3 months): 7.7%; Mass loss attributed to water (TGA) after storage ([5]; 25° C./60% RH, 15 months): 6.5%
CN1CCN(Cc2ccc(-c3cnc(N4CCOC(Cn5nnc6ncc(-c7cnn(C)c7)nc65)C4)nc3)cc2)CC1.CS(=O)(=O)O.CS(=O)(=O)O.CS(=O)(=O)O (centres unmarked) [Mes3]	–	–	–	–	–	–	–	–	Mes3 (deliquescent)	–	–	–	–	–	–	–	–	–	–	became deliquescent	–
